# In US10570104B2, “Metabolically programmed metal chelators and uses thereof” (University of Florida Research Foundation, Incorporated, priority 2015, dated 2020):
# “Also recorded” adds a separate entry of the source. Where two headings read alike, the source gives them in different places.
# Assays:
# [1] = rats; cited from earlier work
# [2] = 2:1 complex with Fe(III), cited from earlier work
# [3] = log Papp, octanol/TRIS buffer pH 7.4, shake flask direct method; type: physicochemical; details: not told
# Text: The redesign of 2 was predicated on the observation that both ligands 2 and 3 were orally active iron chelators in rodents and primates (Table 1), and that when the 4′-(OH) of 2 was methylated, providing (S)-4,5-dihydro-2-(2-hydroxy-4-methoxyphenyl)-4-methyl-4-thiazolecarboxylic acid^43 [(S)-4′-(CH3O)-DADFT, 4], there was a remarkable enhancement in both ICE and lipophilicity (log Papp). The log Papp data are expressed as the log of the fraction of the chelator seen in the octanol layer; measurements were done in TRIS buffer, pH 7.4, using a “shake flask” direct method.^49 The more negative the log Papp, the less chelator is in the octanol phase, the less lipophilic. Unfortunately, the increase in ICE of 4 came with a concomitant increase in toxicity.^50 Thus, the delicate balance between the increase in ICE and toxicity with enhanced lipophilicity needed to be understood and exploited.
# [4] = cited from earlier work
# [5] = cited from earlier work; remark: listed apart in the source
# [6] = cited from earlier work; remark: listed apart in the source
# [7] = rats, cited from earlier work
# [8] = Tissue distribution/metabolism of chelators in rats given sc (HPLC); type: in vivo, Sprague-Dawley rats; details: for metabolism of 7 to 8 and 9 in tissues: sc 7, HPLC of tissues
# [9] = as above; type: in vivo, Sprague-Dawley rats
# Method: Collection of Chelator Tissue Distribution Samples from Rodents. Male Sprague-Dawley rats (250-350 g) were given a single subcutaneously injection of the monosodium salts of 8 and 11 prepared as described above at a dose of […]. At times 0.5, 1, 2, 4 and 8 hours after dosing (n=3 rats per time point), the animals were euthanized by exposure to CO2 gas. Blood was obtained via cardiac puncture into vacutainers containing sodium citrate. The blood was centrifuged, and the plasma was separated for analysis. The liver, kidney, heart, and pancreas were removed from the animals and frozen.
# Tissue Analytical Methods. Tissue samples of animals treated with 8 were prepared for HPLC analysis by homogenizing them in H2O at a ratio of 1:1 (w/v). Then, as a rinse, CH3OH at a ratio of 1:3 (w/v) was added, and the mixture was stored at −20° C. for 30 min. This homogenate was centrifuged. The supernatant was diluted with H2O, vortexed, and filtered with a 0.2 μm membrane. Analytical separation was performed on a Supelco Discovery RP Amide C16 HPLC system with UV detection at 310 nm as described previously.^44,75 Mobile phase and chromatographic conditions were as follows: solvent A, 5% CH3CN/95% buffer (25 mM KH2PO4+2.5 mM 1-octanesulfonic acid, pH 3.0); solvent B, 60% CH3CN/40% buffer.
# Tissue samples of animals treated with 11 were prepared for HPLC analysis by homogenizing them in 0.5 N HClO4 at a ratio of 1:3 (w/v). Then, as a rinse, CH3OH at a ratio of 1:3 (w/v) was added, and the mixture was stored at −20° C. for 30 min. This homogenate was centrifuged. The supernatant was diluted with 95% buffer (25 mM KH2PO4, pH 3.0)/5% CH3CN, vortexed, and filtered with a 0.2 μm membrane. Analytical separation was performed on a Supelco Ascentis Express RP-Amide HPLC system with UV detection at 310 nm as described previously. Mobile phase and chromatographic conditions were as for 8.
# Ligand concentrations were calculated from the peak area fitted to calibration curves by nonweighted least-squares linear regression with Shimadzu Class-VP 7.4 software.
# [10] = 300 μmol/kg, monosodium salt
# Method: Sample collection and handling are as previously described.^38,40
# Drug Preparation and Administration. In the iron clearing experiments, the rats were given 8-14 orally at a dose of 300 μmol/kg. […] The chelators were administered as their monosodium salts (prepared by the addition of 1 equiv of NaOH to a suspension of the free acid in distilled water).
# Calculation of Chelator Iron Clearing Efficiency (ICE). The term “ICE” is used as a measure of the amount of iron excretion induced by a chelator. The ICE, expressed as a percent, is calculated as (ligand-induced iron excretion/theoretical iron excretion)×100. […] The theoretical iron outputs of the chelators were generated on the basis of a 2:1 ligand:iron complex. The efficiencies in the rats and monkeys were calculated as set forth elsewhere.^37 Data are presented as the mean±the standard error of the mean; p-values were generated via a one-tailed Student's t-test in which the inequality of variances was assumed, and a p-value of <0.05 was considered significant.
# [11] = Chelator-induced iron clearance (ICE) in iron-overloaded Cebus apella primates; type: in vivo, Cebus apella monkeys; details: 75 μmol/kg, monosodium salt
# Method: Iron Loading of Cebus apella Monkeys. The monkeys (3.5-6.5 kg) were iron overloaded with intravenous iron dextran as specified in earlier publications to provide about 500 mg of iron per kg of body weight; the serum transferrin iron saturation rose to between 70 and 80%.^38,40 At least 20 half-lives, 60 days, elapsed before any of the animals were used in experiments evaluating iron-chelating agents.
# Primate Fecal and Urine Samples. Fecal and urine samples were collected at 24 hours intervals and processed as described previously^38,40,74 Briefly, the collections began 4 days prior to the administration of the test drug and continued for an additional 5 days after the drug was given. Iron concentrations were determined by flame absorption spectroscopy as presented in other publications.^38′^40
# Drug Preparation and Administration.
# Calculation of Chelator Iron Clearing Efficiency (ICE).
# [12] = rats; cited from earlier work; remark: listed apart in the source
structure (smiles),measurement,setting,value
"C[C@]1(C(=O)O)CSC(c2ncccc2O)=N1 [Compound 1, (S)-4,5-dihydro-2-(3-hydroxy-2-pyridinyl)-4-methyl-4-thiazolecarboxylic acid]",nephrotoxicity,[1],severe nephrotoxicity; also recorded: unacceptable renal toxicity
same,cumulative formation constant,[2],4e+29 M⁻¹
same,cumulative formation constant,[2]; unit not given,4×10^29
same,Log Papp,[3],−1.77
same,Primate ICE (%),"[4]; po, 150 μmol/kg, historical",16.1±8.5%
same,Rodent ICE (%),"[5]; po, 150 μmol/kg",5.5±3.2%
"C[C@]1(C(=O)O)CSC(c2ccc(O)cc2O)=N1 [Compound 2, (S)-2-(2,4-dihydroxyphenyl)-4,5-dihydro-4-methyl-4-thiazolecarboxylic acid]",Log Papp,[3],−1.05
same,Primate ICE (%),"[4]; po, 150 μmol/kg, historical",16.8±7.2%
same,tolerability in patients,"[6]; 5, 10, or 15 mg/kg/day once daily for up to 12 weeks",well tolerated
same,renal toxicity in patients,"[6]; twice daily 12.5 mg/kg (25 mg/kg/d), three patients after 4-5 weeks",unacceptable renal toxicity
same,Rodent ICE (%),"[5]; po, 300 μmol/kg, historical",1.1±0.8%
"COCCOCCOc1ccc(C2=N[C@@](C)(C(=O)O)CS2)c(O)c1 [Compound 7, (S)-4,5-dihydro-2-[2-hydroxy-4-(3,6-dioxaheptyloxy)phenyl]-4-methyl-4-thiazolecarboxylic acid]",Log Papp,[3],−0.89
same,Primate ICE (%),"[4]; po, 75 μmol/kg, as monosodium salt, historical",28.7±12.4%
same,Primate ICE (%),"[4]; po, 75 μmol/kg, in capsules, historical",26.3 ± 9.9%
same,Rodent ICE (%),"[5]; po, 300 μmol/kg, 48 hour sample collection period, historical",26.7 ± 4.7%
same,histopathology,[7]; extensive tissues,no drug-related abnormalities were identified
same,CBC and serum chemistries,"[7]; po s.i.d. 28 d (56.9-170.7 μmol/kg/day), s.i.d. 10 d (384 μmol/kg/d), b.i.d. 7 d (474 μmol/kg/d)",No drug-related abnormalities were found
same,BUN and SCr levels,[7]; same regimens,within the normal range
same,urinary Kim-1 excretion,[7]; up to 28 days,did not elicit any increases in urinary Kim-1 excretion
same,cleavage of 7 to 2,[8]; sc 7,no cleavage to 2; also recorded: does not sustain metabolic cleavage at the 4′-(HO) to yield 2
same,metabolism of 7 to 8 and 9 in tissues,[8],cleavage of the terminal methyl of 7 to the corresponding alcohol 8 did occur
same,share of total drug concentration,"[9]; sc 7, plasma, 0.5 hour",95%
"C[C@]1(C(=O)O)CSC(c2ccc(OCCOCC(=O)O)cc2O)=N1 [Compound 9, (S)-4,5-dihydro-2-[2-hydroxy-4-(4-carboxy-3-oxabutyloxy)phenyl]-4-methyl-4-thiazolecarboxylic acid]",Rat ICE (%),[10]; po,6.2 ± 1.7%
same,Rat ICE (%),[10]; sc,11.3 ± 3.4%
same,Cebus ICE (%),[11]; po,1.7±1.4%
same,Cebus ICE (%),[11]; sc,17.4±9.7%
same,Log Papp,[3],−1.63
same,metabolism of 7 to 8 and 9 in tissues,[8],not detected
same,share of drug (parent+metabolite),"[9]; sc 8, 300 μmol/kg, liver, 1 hour",59%
same,detection in liver,"[9]; sc 8, 300 μmol/kg, liver, 8 hours",no metabolite 9 remains
same,share of drug (parent+metabolite),"[9]; sc 8, 300 μmol/kg, plasma, 2 hour post dosing",88%
same,detection in plasma,"[9]; sc 8, 300 μmol/kg, plasma, 8 hour",Neither the parent 8 nor the metabolite 9 was found at the 8 hour time point
"CC(=O)N(O)CCCCCNC(=O)CCC(=O)N(O)CCCCCNC(=O)CCC(=O)N(O)CCCCCN [DFO, desferrioxamine B]",Primate ICE (%),"[4]; sc, 150 μmol/kg",5.5 ± 0.9%
same,Rodent ICE (%),"[5]; sc, 150 μmol/kg",2.5 ± 0.7%
same,effect on colitis,[12],prevent acetic acid-induced colitis
